From patent publication US20110136842A1, “Substituted Dihydroisoquinolinone and Isoquinolinedione Derivatives as Calcium Channel Blockers” (priority 2008, published 2011)

Biological target: T1, Human Cav2.2 channels (Homo sapiens, UniProt Q00975)
T1 construct: expressed in transfected cells
Assay: Fluorescent assay for Cav2.2 channels using potassium depolarization to initiate channel opening
Format: cell-based
Details: assay of Example 1 in the presence of 30 mM potassium (inactivated channel state)
From the text: Human Cav2.2 channels were stably expressed in HEK293 cells along with alpha2-delta and beta subunits of voltage-gated calcium channels. An inwardly rectifying potassium channel (Kir2.3) was also expressed in these cells to allow more precise control of the cell membrane potential by extracellular potassium concentration. At low bath potassium concentration, the membrane potential is relatively negative, and is depolarized as the bath potassium concentration is raised. In this way, the bath potassium concentration can be used to regulate the voltage-dependent conformations of the channels. Compounds are incubated with cells in the presence of low (4 mM) potassium or elevated (12, 25 or 30 mM) potassium to determine the affinity for compound block of resting (closed) channels at 4 mM potassium or affinity for block of open and inactivated channels at 12, 25 or 30 mM potassium. After the incubation period, Cav2.2 channel opening is triggered by addition of higher concentration of potassium (70 mM final concentration) to further depolarize the cell. The degree of state-dependent block can be estimated from the inhibitory potency of compounds after incubation in different potassium concentrations.
Calcium influx through Cav2.2 channels is determined using a calcium-sensitive fluorescent dye in combination with a fluorescent plate reader. Fluorescent changes were measured with either a VIPR (Aurora Instruments) or FLIPR (Molecular Devices) plate reader.
• 1. Seed cells in Poly-D-Lysine Coated 96- or 384-well plate and keep in a 37° C.-10% CO2 incubator overnight • 2. Remove media, wash cells with 0.2 mL (96-well plate) or 0.05 mL (384-well plate) Dulbecco's Phosphate Buffered Saline (D-PBS) with calcium & magnesium (Invitrogen; 14040) • 3. […] Read cell plate on VIPR instrument, Excitation=480 nm, Emission=535 nm • 9. With VIPR continuously reading, add 0.1 mL (96-well plate) or 0.03 mL (384-well plate) of Depolarization Buffer, which is 2× the final assay concentration, to the cell plate.

T1 sequence (Q00975 whole entry): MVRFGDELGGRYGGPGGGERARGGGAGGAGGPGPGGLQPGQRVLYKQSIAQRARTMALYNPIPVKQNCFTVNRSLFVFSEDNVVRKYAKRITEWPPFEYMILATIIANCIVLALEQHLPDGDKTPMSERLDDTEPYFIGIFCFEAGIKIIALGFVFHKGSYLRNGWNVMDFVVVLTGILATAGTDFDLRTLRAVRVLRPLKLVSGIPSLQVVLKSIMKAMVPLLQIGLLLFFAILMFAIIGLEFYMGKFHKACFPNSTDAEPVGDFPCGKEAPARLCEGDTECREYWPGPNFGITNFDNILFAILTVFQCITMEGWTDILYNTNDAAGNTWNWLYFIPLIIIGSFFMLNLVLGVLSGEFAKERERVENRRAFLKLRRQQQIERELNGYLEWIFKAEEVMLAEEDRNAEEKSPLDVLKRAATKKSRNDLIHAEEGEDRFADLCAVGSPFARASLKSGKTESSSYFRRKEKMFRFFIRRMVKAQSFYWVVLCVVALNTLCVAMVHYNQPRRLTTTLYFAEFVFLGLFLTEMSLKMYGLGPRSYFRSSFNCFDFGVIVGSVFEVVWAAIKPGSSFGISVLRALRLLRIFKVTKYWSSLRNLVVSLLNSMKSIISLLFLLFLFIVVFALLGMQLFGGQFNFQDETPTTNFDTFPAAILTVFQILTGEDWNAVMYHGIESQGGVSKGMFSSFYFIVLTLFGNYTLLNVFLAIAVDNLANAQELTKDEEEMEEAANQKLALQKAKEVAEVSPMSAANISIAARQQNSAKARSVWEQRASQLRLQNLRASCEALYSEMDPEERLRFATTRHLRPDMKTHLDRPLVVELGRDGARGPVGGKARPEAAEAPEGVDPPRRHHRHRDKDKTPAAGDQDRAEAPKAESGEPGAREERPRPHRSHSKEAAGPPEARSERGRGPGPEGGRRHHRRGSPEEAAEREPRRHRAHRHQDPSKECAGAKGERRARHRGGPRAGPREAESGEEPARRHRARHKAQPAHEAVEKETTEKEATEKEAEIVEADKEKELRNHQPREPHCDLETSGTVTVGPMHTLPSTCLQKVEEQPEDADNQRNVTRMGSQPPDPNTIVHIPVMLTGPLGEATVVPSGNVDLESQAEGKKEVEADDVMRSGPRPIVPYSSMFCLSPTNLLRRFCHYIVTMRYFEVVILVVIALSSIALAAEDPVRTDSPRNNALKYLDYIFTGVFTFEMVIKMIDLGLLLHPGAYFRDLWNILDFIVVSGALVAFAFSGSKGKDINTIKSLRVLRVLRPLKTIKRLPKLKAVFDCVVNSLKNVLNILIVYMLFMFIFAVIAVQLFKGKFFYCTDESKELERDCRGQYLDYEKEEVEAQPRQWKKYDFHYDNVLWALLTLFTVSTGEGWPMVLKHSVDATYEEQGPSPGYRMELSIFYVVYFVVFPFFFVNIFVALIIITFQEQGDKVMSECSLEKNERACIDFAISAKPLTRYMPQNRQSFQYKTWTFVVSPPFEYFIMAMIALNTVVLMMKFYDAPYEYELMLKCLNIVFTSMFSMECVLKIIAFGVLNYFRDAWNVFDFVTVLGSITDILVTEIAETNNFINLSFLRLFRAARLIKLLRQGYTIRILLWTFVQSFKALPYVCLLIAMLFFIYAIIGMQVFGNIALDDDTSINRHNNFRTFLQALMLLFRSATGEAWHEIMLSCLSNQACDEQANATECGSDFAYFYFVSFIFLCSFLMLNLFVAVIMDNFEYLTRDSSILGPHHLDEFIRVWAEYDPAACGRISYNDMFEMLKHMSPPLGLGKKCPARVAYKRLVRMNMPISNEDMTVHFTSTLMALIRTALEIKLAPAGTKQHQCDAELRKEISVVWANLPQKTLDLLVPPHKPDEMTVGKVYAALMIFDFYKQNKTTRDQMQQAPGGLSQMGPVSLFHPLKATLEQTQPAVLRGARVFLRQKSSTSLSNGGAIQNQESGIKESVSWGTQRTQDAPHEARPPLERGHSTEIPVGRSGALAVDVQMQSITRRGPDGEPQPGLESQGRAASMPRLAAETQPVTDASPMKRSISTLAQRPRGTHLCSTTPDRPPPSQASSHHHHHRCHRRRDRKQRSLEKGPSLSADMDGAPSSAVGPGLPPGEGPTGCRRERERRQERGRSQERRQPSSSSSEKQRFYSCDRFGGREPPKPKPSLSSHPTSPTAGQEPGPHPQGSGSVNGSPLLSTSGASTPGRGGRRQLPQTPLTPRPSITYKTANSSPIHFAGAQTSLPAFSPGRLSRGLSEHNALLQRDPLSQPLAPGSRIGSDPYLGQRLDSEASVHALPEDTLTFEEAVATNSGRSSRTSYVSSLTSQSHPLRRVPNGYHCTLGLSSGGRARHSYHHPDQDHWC

| IC50 [nM] | SMILES |
| --- | --- |
| 230 | CC1(Cc2cc(F)cc(F)c2F)C(=O)NCc2ccc(-c3cccc(OCC(F)(F)F)c3)cc21 (stereo not drawn) [Example 1, 4-methyl-4-(2,3,5-trifluorobenzyl)-6-[3-(2,2,2-trifiuoroethoxy)phenyl]-1,4-dihydroisoquinolin-3(2H)-one] |
| 260 | CC1(Cc2cc(F)cc(F)c2F)C(=O)NC(=O)c2ccc(-c3cccc(OCC(F)(F)F)c3)cc21 (stereo not drawn) [Example 2, 4-methyl-4-(2,3,5-trifluorobenzyl)-6-[3-(2,2,2-trifluoroethoxy)phenyl]isoquinoline-1,3(2H,4H)-dione] |
| 20 | Cn1cnc(N2Cc3ccc(-c4cccc(OCC(F)(F)F)c4)cc3C(C)(Cc3cc(F)cc(F)c3F)C2=O)c1 (stereo not drawn) [Example 3, 4-methyl-2-(1-methyl-1H-imidazol-4-yl)-4-(2,3,5-trifluorobenzyl)-6-[3-(2,2,2-trifiuoroethoxy)phenyl]-1,4-dihydroisoquinolin-3(2H)-one] |
